{
  "source": "patent US6534048B1",
  "about": "“Topical clonidine preparation” (Curatek Pharmaceuticals Holding, Inc., priority 1999, dated 2003)",
  "key": {"[1]": {"test_system": "patients with postherpetic neuralgia", "conditions": "cited from earlier work"}},
  "data": [
    {"smiles": "Clc1cccc(Cl)c1NC1=NCCN1", "note": "[clonidine, N-(2,6-dichlorophenyl)-4,5-dihydro-1H-imidazol-2-amine]", "values": [
      {"measurement": "side effects", "setting": "eight volunteers, 3 mg or 6 mg per day for 14 consecutive days", "value": "no side effects were observed"},
      {"measurement": "mean plasma concentrations", "setting": "topical daily doses of 3 mg and 6 mg clonidine", "value": "not more than 0.2 nanograms/ml"},
      {"measurement": "side effects", "setting": "[1]; single oral 0.2 mg, at the time of peak clonidine levels", "value": "troublesome levels of sedation and dizziness"},
      {"measurement": "pain relief", "setting": "[1]; single oral doses of 0.2 mg, 40 patients", "value": "greater than that produced by doses of placebo or 120 mg codeine"}
    ]}
  ]
}
